Here are results for one molecule from US12018058B2, “Compositions and methods for diagnosing and/or treating kidney injury” (Boston Medical Center Corporation, priority 2018, dated 2024).

One data set has as its system primary human PTECs. Format: cell-based. Details: Improvement in cell survival: dose or concentration left out as unconfirmed. As to conditions: for Cell survival after ischemic stress: PTECs, ATP depletion, versus control peptide. The protocol: Exposure to metabolic inhibitors is an established model of ischemic stress that reduces ATP content to, 10% of baseline values until recovery is initiated.24,26 To achieve ATP depletion, cells were washed three times in glucose-free DMEM (Invitrogen, Carlsbad, CA) followed by incubation in glucose-free DMEM containing sodium cyanide (5 mM) and 2-deoxy-glucose (5 mM) for the indicated times.26
Recovery was initiated by replacing the stress medium described above with complete primary cell culture medium containing glucose and substrates that support the rapid restoration of cell ATP.27
For in vitro testing in primary human PTECs, peptides ([…]) were tested that replicate the Bax domain responsible for binding NPM,34 or two peptides designed to interfere with NPM function were compared with a random nonspecific sequence of the same length (control). Peptides intended to interfere with NPM function overlap key phosphorylation sites located at the NPM amino terminus (peptide 2) or carboxy terminus (peptide 3) detected by mass spectrometry. To improve cell uptake, all peptides contained a cell-penetrating sequence13. For in vivo experiments, a renal-targeting sequence (NLS) was added to enhance renal peptide uptake.35 Peptides were commercially synthesized (Biomatik, Wilmington, DE) J Am Soc Nephrol 30: ccc-ccc, 2018 Nucleophosmin in AKI 3www.jasn.org BASIC RESEARCHas follows: NPM-Bax blocking peptide: Ac-KKKRKV-(bA)-[…]-COOH (SEQ ID NO: 8); peptide 2: AC-PKKKRKV-(bA)-[…]-COOH (SEQ ID NO: 9); and peptide 3: AC-PKKKRKV-(bA)-ESFKK-QEKTPKTPKGPSSVED-IKAK-COOH (SEQ ID NO: 10). A single dose ([…] of the NPM-Bax blocking or control peptide) was administered by tail vein injection immediately after release of the pedicle clamps(0 timepoint) […] in each experimental group. A total of 42 control and 56 experimental animals were studied.
Transient exposure to metabolic inhibitors replicates ischemia in vivo by activating Bax and causing cell death.13,29,36-38 Cell viability was assayed using a modified colorimetric technique (MTTassay).37 The number of surviving cells is expressed as a percentage of viable control cells detected at baseline. Serum BUN and creatinine levels were measured in tail vein blood samples for 7 days after ischemia using QuantiChrom BUN or creatinine assay kits (BioAssay Systems, Hayward, CA) according to the manufacturer's instructions.

A further data set has as its target T1, NPM-Bax complex (Mus musculus, UniProt Q61937).
T1 construct: from tissue; host or cells: renal cortical homogenate of C57BL/6J mice after bilateral renal pedicle clamping
Description: NPM-Bax interaction, Bax immunoprecipitates from renal cortical homogenates after ischemia. The class given is in vivo, murine. To be noted: for Bax-NPM interaction in postischemic renal homogenates: peptide injected 3 hours after bilateral renal ischemia, FIG. 9B. The procedure:
Similar amounts of Bax were detected in each lane, and input protein amounts for each sample were identical. IB, immunoblot; IP, immunoprecipitation.
Cell, tissue, and urinary proteins were harvested using PD buffer containing 40 mM Tris-HCl, pH 8.0, 500 mM NaCl, 0.1% Nonidet P-40, 6 mM EGTA, and a protease inhibitor cocktail (Set I; Calbiochem, San Diego, CA). NPM was immunoprecipitated overnight with NPM antibodies (catalog no. B0556; Sigma-Aldrich) in the presence of protein A/G-agarose beads at 4° C. NPM accumulation was measured in cytosolic samples extracted with low-dose digitonin ([…]).13 Cytosolic proteins were extracted from renal cortical tissue samples using an extraction kit (Biochain Institute, Newark, CA). Briefly, 50-100 mg of kidney cortex tissue was minced on ice and spin washed with 1 ml ice-cold wash buffer before adding […] of buffer C. The mixture was rotated at 4° C. for 20 minutes and then centrifuged at 18,0003 g at 4° C. for 20 minutes before being harvested. Protein levels were measured with the bicinchoninic acid assay (Thermo Scientific, Rockford, IL).
NPM is a relevant therapeutic target in human AKI. Primary human proximal tubule epithelial cells (PTEC) derived from cadaveric kidneys were subjected to ischemic stress (transient ATP depletion) in the presence of specific NPM siRNA or non-sense siRNA. […] Thus, manipulating NPM is an effective maneuver. […] Small peptides of 30 amino acids or less are sufficiently specific to minimize off target effects and also reduce the risk of eliciting an antibody response that causes tachyphylaxis. Peptides were commercially synthesized and fused to a nuclear localizing sequence (this NLS has no functional relationship to the “NPM NLS” that regulates NPM translocation). The NLS-CPP markedly increases renal accumulation of small peptides8 as well as in the proximal tubule. […] To determine its effect on NPM-Bax complex formation, active Bax was immunoprecipitated from PTEC rendered ischemic with an antibody directed against the 6A7 epitope. The precipitates were subjected to immunoblot analysis using an anti-NPM antibody. […] NPM and Bax accumulation was measured in mitochondria isolated from human PTEC after ischemic stress. […] This is likely due to the prolonged half-life (about 80 hr) of the peptide in vitro and in vivo due to the presence of an AC modification slows degradation.

The nature of data set [1]: Peptide half-life in vitro and in vivo.

Like-named read-outs stand apart in the source and are kept apart here. Square brackets hold non-standard residues; d marks the D form. Peptide text beside a SMILES is read from it. βAla = NCCC(=O)O

T1 sequence (Q61937 whole entry, one chain of several): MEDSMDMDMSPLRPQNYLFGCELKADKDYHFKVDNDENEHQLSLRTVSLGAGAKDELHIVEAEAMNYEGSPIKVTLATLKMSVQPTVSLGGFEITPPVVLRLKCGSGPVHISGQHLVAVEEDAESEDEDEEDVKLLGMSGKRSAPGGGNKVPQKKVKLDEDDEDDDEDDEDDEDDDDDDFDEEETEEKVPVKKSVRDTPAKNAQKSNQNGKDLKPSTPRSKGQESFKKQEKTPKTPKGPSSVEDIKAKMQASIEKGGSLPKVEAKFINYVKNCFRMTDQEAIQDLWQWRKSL

Turning to `CC[C@H](C)[C@H](NC(=O)[C@@H](NC(=O)[C@H](CC(C)C)NC(=O)[C@H](CO)NC(=O)[C@H](C)NC(=O)[C@@H](NC(=O)[C@H](CC(C)C)NC(=O)[C@@H](NC(=O)CNC(=O)[C@H](C)NC(=O)[C@@H](NC(=O)[C@H](Cc1ccccc1)NC(=O)[C@@H](NC(=O)[C@@H](NC(=O)[C@@H](NC(=O)[C@@H](NC(=O)CCNC(=O)[C@@H](NC(=O)[C@H](CCCCN)NC(=O)[C@H](CCCNC(=N)N)NC(=O)[C@H](CCCCN)NC(=O)[C@H](CCCCN)NC(=O)[C@H](CCCCN)NC(C)=O)C(C)C)[C@@H](C)O)C(C)C)[C@@H](C)O)[C@@H](C)CC)C(C)C)C(C)C)[C@@H](C)O)[C@@H](C)O)C(=O)N[C@@H](Cc1c[nH]c2ccccc12)C(=O)N[C@@H](CCCCN)C(=O)N[C@@H](CCCCN)C(=O)N[C@@H](CCSC)C(=O)NCC(=O)O` [Peptide #1] (Ac-KKKRKV[βAla]TVTIFVAGVLTASLTIWKKMG-OH), in the data set on primary human PTECs, the “Improvement in cell survival” value was 25%. Besides, the “Cell survival after ischemic stress” value was “significantly improve cell survival” with primary human PTECs (listed as Bax peptide) and “improves renal cell survival” with primary human PTECs (listed as NPM blocking peptide). The “Decrease of NPM-Bax complex formation in vivo (renal cortical homogenates)” value on NPM-Bax complex (after ischemia by pedicle clamping) is “about 50%”. Besides, the “Bax-NPM interaction in postischemic renal homogenates” value was “markedly decreases” at NPM-Bax complex, “markedly reduced” on NPM-Bax complex (listed as Blocking peptide) and “decreases” on NPM-Bax complex (listed as NPM-Bax blocking peptide (Peptide #1)). In addition, in data set [1], the half-life – broadly, how long it takes for the measured level to halve – is roughly 80 h.
